Measured values taken from patent EP4603105A1, “PHARMACEUTICAL COMPOSITION CONTAINING CYCLIC COMPOUND HAVING SELECTIVE KRAS INHIBITORY EFFECT AGAINST HRAS AND NRAS” (CHUGAI SEIYAKU KABUSHIKI KAISHA, priority 2022, dated 2024).

Key:
[1] = test system: human lung cancer strain NCI-H441; type: cell-based
Experimental: A test compound was dispensed into a U-bottom 384-well plate as 40 nL serially diluted dimethyl sulfoxide solutions using a liquid handler Echo (LABCYTE). […] This cell suspension was dispensed in an amount of 40 µL per well into a plate containing the test compound, and cultured at 37°C in a 5% carbon dioxide gas incubator. Four days later, 20 µL of CellTiter-Glo (registered trademark) (Promega) was added to each well and […] was measured. […]

HRAS wild-type protein = HRAS wild-type protein (Homo sapiens, UniProt P01112); experiment: Binding to HRAS by surface plasmon resonance (SPR), KD and KD ratio to KRAS
Experimental: (§1) Surface plasmon resonance was used to analyze the binding affinity of compounds for KRAS, NRAS, and HRAS. The apparatus used was Biacore 8K, 8K+, or T200 (GE Healthcare), and the running buffer used was HBS (10 mM HEPES-NaOH, 150 mM NaCl, pH 7.4) containing 1 mM DTT, 10 mM MgCl2, 0.01% Tween 20, 10 µM GDP, and 4% DMSO.
(§2) Biotinylated Avi-tag fusion KRAS, NRAS, and HRAS proteins were expressed in E. coli BL21 (DE3) strains, and after cells were homogenized, they were purified using Streptavidin Mutein Matrix and Superdex 75. After purification, GDP-loaded KRAS, NRAS, and HRAS proteins were immobilized on the surface of Sensor Chip CAP (Cytiva) coated with Biotin CAPture Reagent in an immobilization amount of about 100 to 300 RU. Binding of each compound was evaluated by the Single Cycle Kinetics method, and a running buffer or a compound solution was added to the RAS protein non-immobilized surface and the immobilized surface to obtain a binding response. The flow rate was set to 100 µL/min, and in the compound-adding cycle, compound solutions having different concentrations were intermittently added for 75 seconds each, starting from a low concentration. […] In the blank cycle, a running buffer was intermittently added and not the compound solution. The Biotin CAPture Reagent and RAS proteins were immobilized for each cycle, and at the end of each cycle, the sensor chip was regenerated by the regeneration solution appended to the Biotin CAPture Kit (Cytiva). Measurement was carried out at 30°C.
(§3) The resulting sensorgram was subjected to curve fitting based on a 1:1 binding model on Biacore Insight Evaluation Software or T200 Evaluation Software, and thereby the dissociation constant KD of each compound with respect to KRAS, NRAS, and HRAS was determined. […] Blank indicates a compound from which the KD value with respect to NRAS or HRAS was not obtained.

[2] = target: GDP-bound NRAS wild-type protein (Homo sapiens, UniProt P01111); experiment: Binding to NRAS by surface plasmon resonance (SPR), KD and KD ratio to KRAS
Experimental: as §1, §2, §3

[3] = ratio of KD value for HRAS wild-type protein to KD value for KRAS (SPR)
[4] = ratio of KD value for GDP-bound NRAS wild-type protein to KD value for KRAS (SPR)
[5] = ratio of the KD value with respect to HRAS wild-type protein to the KD value with respect to KRAS
[6] = ratio of the KD value with respect to GDP-bound NRAS wild-type protein to the KD value with respect to KRAS

Chain of GDP-bound NRAS wild-type protein (P01111 whole entry): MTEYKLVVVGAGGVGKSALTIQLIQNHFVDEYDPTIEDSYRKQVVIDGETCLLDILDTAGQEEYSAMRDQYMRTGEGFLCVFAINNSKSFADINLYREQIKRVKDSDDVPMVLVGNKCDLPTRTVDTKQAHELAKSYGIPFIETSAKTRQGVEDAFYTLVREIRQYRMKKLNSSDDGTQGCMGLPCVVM
Chain of HRAS wild-type protein (P01112 whole entry): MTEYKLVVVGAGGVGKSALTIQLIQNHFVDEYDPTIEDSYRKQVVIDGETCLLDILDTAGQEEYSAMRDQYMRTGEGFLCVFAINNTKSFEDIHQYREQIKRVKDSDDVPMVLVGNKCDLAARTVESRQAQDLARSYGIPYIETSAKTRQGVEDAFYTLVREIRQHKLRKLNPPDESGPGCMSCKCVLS

CCO[C@@H]1C[C@H]2C(=O)N(C)C3(CCC3)C(=O)N(C)[C@@H](C3CCCC3)C(=O)N(C)[C@H](C(=O)N(C)C)CC(=O)N(C)[C@@H](CC)C(=O)N[C@@H]([C@@H](C)CC)C(=O)N(C)CC(=O)N(C)[C@H]3C/C=C\CCN(C3=O)[C@@H](Cc3ccc(C(F)(F)F)cc3)C(=O)N(C)CC(=O)N[C@@H](CCc3cc(F)c(C(F)(F)F)c(F)c3)C(=O)N2C1 [PP1779] was tested, and the IC50 [1] was 5.4 nM, the “HRAS /KRAS” value (HRAS wild-type protein; [3]) was “B (a compound having 3 or more and less than 10 is denoted as B)” and the “NRAS /KRAS” value [2, 4] was “A (a compound having 10 or more and less than 20 is denoted as A)”.
CCC[C@H]1C(=O)N[C@@H]([C@@H](C)CC)C(=O)N(C)CC(=O)N(C)[C@H]2C/C=C\CCN(C2=O)[C@@H](Cc2ccc(C)cc2)C(=O)N(C)CC(=O)N[C@@H](CCc2ccc(C(F)(F)F)c(Cl)c2)C(=O)N2C[C@H](OCC)C[C@H]2C(=O)NC2(CCC2)C(=O)N(C)[C@@H](C2CCCC2)C(=O)N(C)[C@H](C(=O)N(C)CC)CC(=O)N1C [PP1895] was tested, and the IC50 [1] was 15.6 nM, the “HRAS /KRAS” value (HRAS wild-type protein; [3]) was “B (a compound having 3 or more and less than 10 is denoted as B)” and the “NRAS /KRAS” value [2, 4] was “A (a compound having 10 or more and less than 20 is denoted as A)”.
In the case of CCO[C@@H]1C[C@H]2C(=O)NC3(CC(C)(C)C3)C(=O)N(C)[C@@H](C3CCCC3)C(=O)N(C)[C@H](C(=O)N3CCCC3)CC(=O)N(C)[C@H]3CCCC/C=C/c4ccc(cc4)C[C@@H](C(=O)N(C)CC(=O)N[C@@H](CCc4ccc(Cl)c(Cl)c4)C(=O)N2C1)N1CC/C=C\C[C@@H](C1=O)N(C)C(=O)CN(C)C(=O)[C@H]([C@@H](C)CC)NC3=O [PP2593], the IC50 [1] is reported as 11.5 nM, the “HRAS /KRAS” value (HRAS wild-type protein; ratio of KD for HRAS wild-type protein to KD for KRAS) is reported as “A (a compound having 10 or more and less than 20 is denoted as A)” and the “NRAS /KRAS” value ([2]; ratio of KD for GDP-bound NRAS wild-type protein to KD for KRAS) is reported as “A (a compound having 10 or more and less than 20 is denoted as A)”.
CC[C@H](C)[C@@H]1NC(=O)[C@H](CC(C)C)N(C)C(=O)C[C@@H](C(=O)N(C)C)N(C)C(=O)[C@H](C2CCCC2)N(C)C(=O)C2(CCC2)NC(=O)[C@@H]2C[C@@H](C)CN2C(=O)[C@H](CCc2ccc(C(F)(F)F)c(OC)c2)NC(=O)CN(C)C(=O)[C@H](Cc2ccc(C)cc2)N2CC/C=C\C[C@@H](C2=O)N(C)C(=O)CN(C)C1=O [PP1867] was tested, and the IC50 [1] was 47.8 nM, the “HRAS /KRAS” value (HRAS wild-type protein; [3]) was “B (a compound having 3 or more and less than 10 is denoted as B)” and the “NRAS /KRAS” value [2, 4] was “A (a compound having 10 or more and less than 20 is denoted as A)”.
With CC[C@H](C)[C@@H]1NC(=O)[C@H](CC)N(C)C(=O)C[C@@H](C(=O)N(C)C)N(C)C(=O)[C@H](C2CCCC2)N(C)C(=O)C2(CCC2)NC(=O)[C@@H]2C[C@H](N3CCC(F)(F)CC3)CN2C(=O)[C@H](CCc2cc(F)c(C(F)(F)F)c(F)c2)NC(=O)CN(C)C(=O)[C@H](Cc2ccc(C(F)(F)F)cc2)N2CCCCC[C@@H](C2=O)N(C)C(=O)CN(C)C1=O [PP0731] the IC50 [1] was 110 nM, the “HRAS /KRAS” value (HRAS wild-type protein; [5]) was “B (a compound having 3 or more and less than 10 is denoted as B)” and the “NRAS /KRAS” value [2, 6] was “B (a compound having 3 or more and less than 10 is denoted as B)”.
C#CCN1CC(=O)N(C)[C@H]2C/C=C\CCN(C2=O)[C@@H](Cc2ccc(C(F)(F)F)cc2)C(=O)N(C)CC(=O)N[C@@H](CCc2cc(F)c(C(F)(F)F)c(F)c2)C(=O)N2C[C@H](OCC)C[C@H]2C(=O)NC2(CC(C)(C)C2)C(=O)N(C)[C@@H](C2CCCC2)C(=O)N(C)[C@H](C(=O)N(C)C)CC(=O)N(C)[C@@H](CCC)C(=O)N[C@@H]([C@@H](C)CC)C1=O [PP2103] was tested, and the IC50 [1] was 4.3 nM, the “HRAS /KRAS” value (HRAS wild-type protein; [5]) was “A (a compound having 10 or more and less than 20 is denoted as A)” and the “NRAS /KRAS” value [2, 6] was “A (a compound having 10 or more and less than 20 is denoted as A)”.
